Source: US20100183754A1, “Extract and compound for blood pressure regulation” (Taipei Medical University, priority 2009, published 2010)

Experiments:
[1] = tested on: spontaneous hypertensive rats (SHRs); assay: 24-hour blood pressure test of SHRs after single oral administration; assay type: in vivo, rat; conditions: single oral administration 10 mg/kg, versus control fed distilled water
Protocol: The Vitis thunbergii var. taiwaniana extracts of the present invention were used in the in vivo blood pressure regulation assay. The present embodiment was performed on 24 heads of five- to six-week old male spontaneous hypertensive rats (SHRs). The rats were housed for 7 weeks and then used for the assay while they were about twelve- to thirteen-week old. The SHRs were randomly divided into experimental group (12 heads of SHRs) and control group (12 heads of SHRs). The rats of the experimental group were fed with the Vitis thunbergii var. taiwaniana extract obtained in example 1, and the rats of the control group were fed with distilled water for instead. After oral administration by feeding tube, the blood pressure of all SHRs was measured for a certain time interval.
Similarly, the hot water extract of the roots and stems of the Vitis thunbergii var. taiwaniana cultivated in field for 5 to 6 months, which was transferred from tissue culture plantlets, was used in a 24-hour blood pressure test, as shown in FIG. 7 (the rats of the control group were fed with distilled water).
Moreover, the blood pressure of the SHRs fed with (+)-vitisin A purified in example 5 was measured during 24 hours after single oral administration.

ACE = ACE (Homo sapiens, UniProt P12821); assay: In vitro ACE inhibiting assay; assay type: biochemical; conditions: for ACE inhibiting activity (FIG. 11): purified in example 5, various concentrations
Chain of ACE (P12821 30-1306, species assumed): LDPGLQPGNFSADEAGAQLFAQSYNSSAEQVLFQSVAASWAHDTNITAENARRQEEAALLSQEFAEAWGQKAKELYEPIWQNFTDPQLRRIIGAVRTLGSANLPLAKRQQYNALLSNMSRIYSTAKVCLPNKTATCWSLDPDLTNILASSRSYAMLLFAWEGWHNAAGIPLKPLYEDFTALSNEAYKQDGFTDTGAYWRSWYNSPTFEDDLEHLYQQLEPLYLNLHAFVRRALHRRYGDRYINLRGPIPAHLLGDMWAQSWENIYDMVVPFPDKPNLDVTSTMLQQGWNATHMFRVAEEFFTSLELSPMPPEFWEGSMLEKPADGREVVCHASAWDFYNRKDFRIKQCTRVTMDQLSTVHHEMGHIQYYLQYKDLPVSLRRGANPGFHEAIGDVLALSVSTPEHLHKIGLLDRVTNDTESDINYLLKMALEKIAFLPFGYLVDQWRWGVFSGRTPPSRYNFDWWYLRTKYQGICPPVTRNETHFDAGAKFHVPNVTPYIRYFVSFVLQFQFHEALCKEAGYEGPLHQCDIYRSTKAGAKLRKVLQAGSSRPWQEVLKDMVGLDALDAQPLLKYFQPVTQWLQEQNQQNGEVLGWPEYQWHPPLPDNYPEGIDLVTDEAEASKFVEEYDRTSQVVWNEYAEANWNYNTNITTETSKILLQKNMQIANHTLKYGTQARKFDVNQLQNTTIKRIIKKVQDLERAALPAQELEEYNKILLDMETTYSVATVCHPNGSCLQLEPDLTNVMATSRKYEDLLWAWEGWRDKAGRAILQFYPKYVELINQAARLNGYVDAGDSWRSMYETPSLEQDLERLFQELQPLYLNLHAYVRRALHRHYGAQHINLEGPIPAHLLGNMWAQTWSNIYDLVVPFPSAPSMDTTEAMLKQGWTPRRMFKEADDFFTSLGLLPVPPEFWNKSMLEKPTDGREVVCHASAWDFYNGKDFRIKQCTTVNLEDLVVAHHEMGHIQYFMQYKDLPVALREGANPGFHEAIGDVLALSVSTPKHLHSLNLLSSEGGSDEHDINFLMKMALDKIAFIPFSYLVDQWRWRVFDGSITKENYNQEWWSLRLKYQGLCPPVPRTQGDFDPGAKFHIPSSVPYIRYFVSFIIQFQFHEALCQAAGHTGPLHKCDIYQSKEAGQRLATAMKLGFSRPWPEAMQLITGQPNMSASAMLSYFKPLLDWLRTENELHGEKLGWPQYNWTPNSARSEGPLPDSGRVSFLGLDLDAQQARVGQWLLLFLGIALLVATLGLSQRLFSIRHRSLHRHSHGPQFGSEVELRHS
Description: Wherein, the data of TC-1 to TC-4 are obtained from the whole plant extracts of Vitis thunbergii var. taiwaniana cultured by various plant growth substrates, respectively.
Moreover, the hot water extract of the Vitis thunbergii var. taiwaniana tea powder obtained in example 2 is used to perform the same ACE inhibiting assay, as shown in FIG. 6. […] Method A: culturing the tissue culture plantlet for 30 days, replacing the old culture medium with new culture medium, and then culturing the plantlet for another 60 days; in which the plantlet were cultured for 90 days. Method B: culturing the tissue culture plantlet for 30 days, directly adding the new culture medium onto the old culture medium, and then culturing for another 60 days; in which the plantlet were cultured for 90 days.
Various concentration of (+)-vitisin A and ampelopsin C purified in example 5 were used to perform ACE inhibiting activity assay.

| IC50 (ACE; purified in example 5, FIG. 11) | SMILES | blood pressure of SHRs in the period of 24 hours (FIG. 12) [1] | ACE inhibiting activity (FIG. 11) (ACE) |
| --- | --- | --- | --- |
|  | Oc1ccc([C@H]2c3c(O)cc(O)cc3[C@H]3c4c(cc(O)cc4[C@@H]2c2cc(/C=C/c4cc(O)cc5c4[C@H](c4cc(O)cc(O)c4)[C@@H](c4ccc(O)cc4)O5)ccc2O)O[C@@H]3c2ccc(O)cc2)cc1 [(+)-vitisin A] | decreases significantly | obviously have ACE inhibiting activity |
| 18.1 µM | Oc1ccc([C@H]2c3c(O)cc4c5c3[C@@H]([C@H](c3ccc(O)cc3)c3c(O)cc(O)cc3[C@H]5[C@H](c3ccc(O)cc3)O4)[C@@H]2c2cc(O)cc(O)c2)cc1 [ampelopsin C] |  | obviously have ACE inhibiting activity |
